{"source": "patent US20260133203A1", "about": "“DETECTION OF FUMARATE-DERIVED MODIFICATION IN A TEST SAMPLE” (UNIVERSITY OF SOUTH CAROLINA, priority 2017, published 2026)", "key": {"[1]": {"test_system": "N1E-115 neuroblastoma cells differentiated to a neuronal phenotype", "experiment": "Western blot detection of succinated proteins with anti-2SC antibody after KOH hydrolysis of the ester", "assay_type": "cell-based, mouse", "settings": "DMF for 24 hours, hydrolysis of the ester in the presence of KOH", "method": "N1E-115 cells (subclone N1E-115-1 neuroblastoma cells) were obtained from Sigma (08062511, St. Louis, MO). The cells were grown and expanded in non-differentiation medium (NDM): 90% DMEM (Gibco™, Grand Island, NY) with 25 mM glucose, no pyruvate, 25 mM HEPES, 4 mM glutamine and 10% fetal bovine serum (FBS, Atlanta Biologicals, Atlanta, GA). At 80% confluence, the cells were differentiated into neurons in the presence of 2% FBS and 1.25% dimethyl sulfoxide in DMEM for 5 days. In addition to the assessment of the neuronal phenotype by light microscopy, the detection of synaptophysin protein levels was used to confirm successful differentiation. During the final 6 or 24 hours of differentiation, the cells were treated with 10-100 µM DMF and harvested as described above for primary neurons, with the addition of phosphatase inhibitors to the DPBS washes and the RIPA buffer used for scraping to prevent dephosphorylation of CRMP-2. […] To ensure that the succinated proteins detected were solely of neuronal origin, N1E-115 neuroblastoma cells were differentiated to a neuronal phenotype (confirmed by increased synaptophysin content) and treated with DMF for 24 hours. […]"}, "N1E-115 neurons": {"test_system": "N1E-115 neurons", "experiment": "LC-MS/MS identification of succinated proteins in N1E-115 neurons", "assay_type": "cell-based, mouse", "settings": "DMF-treated N1E-115 neurons", "method": "N1E-115 cells (subclone N1E-115-1 neuroblastoma cells) were obtained from Sigma (08062511, St. Louis, MO). The cells were grown and expanded in non-differentiation medium (NDM): 90% DMEM (GibcoTM, Grand Island, NY) with 25 mM glucose, no pyruvate, 25 mM HEPES, 4 mM glutamine and 10% fetal bovine serum (FBS, Atlanta Biologicals, Atlanta, GA). At 80% confluence, the cells were differentiated into neurons in the presence of 2% FBS and 1.25% dimethyl sulfoxide in DMEM for 5 days. In addition to the assessment of the neuronal phenotype by light microscopy, the detection of synaptophysin protein levels was used to confirm successful differentiation. […] After gel extraction, the peptides were re-suspended in 1% acetic acid and analyzed on a DionexTM […] system (Thermo ScientificTM, Rockford, IL) coupled to an Orbitrap Velos ProTM mass spectrometer (Thermo ScientificTM, Rockford, IL). […] The data-dependent acquisition (DDA) data were analyzed using Proteome DiscovererTM 1.4 software with SEQUEST search engine against the uniprot_ref_mouse database (2014-10-03 version, 52,474 proteins) or uniprot_ref_rat database (2011-5-11 version, 39765 proteins) with Xcorr>1 validation (+2) and an allowance for 2 missed cleavages. […]"}}, "note": "Where a name gives a salt, the structure may show the parent alone."}
{"smiles": "COC(=O)/C=C/C(=O)OC", "note": "[DMF, dimethyl fumarate]", "values": [{"measurement": "detection of succinated proteins using the anti-2SC antibody", "setting": "[1]", "result": "detection of a large number of succinated proteins"}, {"measurement": "number of protein subunits modified by either DMF or MMF", "setting": "N1E-115 neurons", "result": 15}]}
